Data from patent publication US20250221979A1, “NOVEL HETEROCYCLIC COMPOUND” (SHOUYAO HOLDINGS (BEIJING) CO., LTD., priority 2022, published 2025).

Experiments:
[1] = In vivo pharmacokinetic study in CD-1 mice; settings: male, mouse, single oral gavage dose of 10 mg/kg, plasma
Experimental: In vivo pharmacokinetic study in CD-1 mice
Twenty-four healthy adult male mice from Beijing Vital River Laboratory Animal Technology Co., Ltd. were used in the study.
CD-1 mice were administered with a single oral gavage dose of 10 mg/kg in a volume of 10 mL/kg at a concentration of 1 mg/mL.
The test article in this project is generally suspended in 0.5% hydroxypropylmethyl cellulose, 0.1% Tween 80 (W/V/V) aqueous solution at the concentration of 1 mg/mL.
Animals dosed by gavage were fasted overnight before the experiment from 16 h before dosing to 4 h after dosing. Blood was collected at 0.25, 0.5, 1, 2, 4, 6, 8, and 24 h after administration successively. The animals were lightly anesthetized with isoflurane. About 0.2 mL of whole blood was collected from the orbital venous plexus using a glass blood collection tube and placed in a sodium heparin anticoagulant tube. The sample was centrifuged at 5200 rpm for 5 min at 4° C. The plasma was transferred to a centrifuge tube and stored at −80° C. until analysis.
Analysis of plasma samples Test compounds and internal standards (warfarin or propranolol) were extracted from mouse plasma using an acetonitrile protein precipitation method and the extracts were analyzed by LC/MS/MS. The measured plasma concentration-time data of individual animals were analyzed using the non-compartmental model of WinNonlin (version 5.2.1, Pharsight) software to obtain the corresponding pharmacokinetic parameters: maximum (peak) plasma drug concentration Cmax; Time to peak Tmax; Half-life T1/2 and area under the plasma concentration-time curve extrapolated to infinite time AUC0-inf.

human MAT2A enzyme = human MAT2A enzyme (Homo sapiens (Human), UniProt P31153); test: In vitro enzymatic inhibition activity assay on MAT2A (PiColorLock phosphate detection); assay type: biochemical; settings: purified human MAT2A 10 nM, ATP 50 μM, L-methionine 100 μM, 6 h at 23° C.; read-out: MAT2A inhibitory activity IC50
Outline: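 Purified human MAT2A (10 nM) turned L-methionine (100 μM) and ATP (50 μM) into SAM in Tris-HCl pH 7.5 buffer with MgCl2, KCl and DTT for 6 h at 23 °C. Released phosphate was read colorimetrically at 630 nm. IC50 was fitted from an 8-point, 10-fold dilution series.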

HCT116 MTAP−/− cells = test: Inhibition of proliferation of HCT116 MTAP-/- cells (Cell-Titer Glo, 7 days); assay type: cell-based; settings: Homo sapiens, HCT-116, 168 h (7 days) incubation, read-out: HCT116 MTAP−/− antiproliferative activity IC50
Experimental: The MTAP deficient human colorectal cancer cell line HCT116 MTAP−/− was constructed using CRJSPR Cas9 technology and cultured in DMEM medium supplemented with 10% fetal bovine serum (FBS, purchased from Gibco) and 1% penicillin/streptomycin (P/S, purchased from Thermo Fisher Scientific) at 37° C. with 5% CO2. HCT116 MTAP−/− cells were plated in 96 well plates (#3917, purchased from CORNING) at a concentration of 200 cells/195 μL/well. After 24 h, the compounds were diluted in a 3-fold gradient starting at 10 mM with 100% DMSO (for a total of 10 concentrations), then 4 μL of each concentration was added to 96 μL of serum-free DMEM medium for dilution. 5 μL of diluted compound at each concentration was added to the plated cell suspension and the compound was incubated with the cells for 168 h (7 days) in a cell culture incubator. The medium was then removed and 25 μL of Cell-Titer Glo® (G7570, purchased from Promega) reagent was added. Chemiluminescence values were read on a BMG and data were processed using GraphPad Prism software to calculate IC50 values for inhibition of cell proliferation by the compounds.

Sequence of human MAT2A enzyme (P31153 whole entry): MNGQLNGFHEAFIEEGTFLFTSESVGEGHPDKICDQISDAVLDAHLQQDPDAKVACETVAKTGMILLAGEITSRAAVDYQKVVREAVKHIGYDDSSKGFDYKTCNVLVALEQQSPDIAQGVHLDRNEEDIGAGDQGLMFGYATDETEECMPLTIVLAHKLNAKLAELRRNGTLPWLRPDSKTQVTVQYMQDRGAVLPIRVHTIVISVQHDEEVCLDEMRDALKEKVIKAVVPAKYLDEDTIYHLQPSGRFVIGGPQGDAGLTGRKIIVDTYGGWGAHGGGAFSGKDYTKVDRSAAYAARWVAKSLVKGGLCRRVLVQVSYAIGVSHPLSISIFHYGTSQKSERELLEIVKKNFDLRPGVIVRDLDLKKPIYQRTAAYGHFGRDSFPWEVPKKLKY

`COC(=O)c1c(N)c2ccc(C(F)(F)F)cc2n(-c2ccccc2C)c1=O` [Example 23, methyl 4-amino-7-trifluoromethyl-1-(2-methylphenyl)-2-oxo-1,2-dihydro quinoline-3-carboxylate] showed an AUC [1] of 37000 ng·h/mL, a Cmax [1] of 2640 ng/mL and a Tmax [1] of 6 h. It also gave a half-life [1] of 6.51 h and an IC50 (human MAT2A enzyme) of 0.91 nM.
`COC(=O)c1c(N)c2ccc(Br)nc2n(-c2ccc3ccncc3c2)c1=O` [Example 244, methyl 4-amino-7-bromo-1-(isoquinolin-7-yl)-2-oxo-1,2-dihydro-1,8-naphthyridine-3-carboxylate] showed an IC50 (HCT116 MTAP−/− cells) of 46.4 nM and an IC50 (human MAT2A enzyme) of 0.86 nM.
Molecule `COC(=O)c1c(N)c2ccc(C(F)(F)F)cc2n(-c2ccc([C@@H](C)O)cc2)c1=O` [Example 272, methyl 4-amino-1-(4-(1-(R)-hydroxyethyl)phenyl)-2-oxo-7-(trifluoromethyl)-1,2-dihydroquinoline-3-carboxylate] has an IC50 (HCT116 MTAP−/− cells) of 16.6 nM and an IC50 (human MAT2A enzyme) of 0.78 nM.
In the case of `COC(=O)c1c(N)c2ccc(C(F)(F)F)nc2n(-c2ccc(OC)nc2)c1=O` [Example 208, methyl 4-amino-1-(6-methoxypyridin-3-yl)-2-oxo-7-(trifluoromethyl)-1,2-dihydro-1,8-naphthyridine-3-carboxylate], the IC50 (HCT116 MTAP−/− cells) is reported as 70.9 nM and the IC50 (human MAT2A enzyme) is reported as 4.09 nM.
With `COC(=O)c1c(N)c2ccc(Br)cc2n(-c2ccc(C)nc2)c1=O` [Example 214, methyl 4-amino-7-bromo-1-(6-methylpyridin-3-yl)-2-oxo-1,2-dihydroquinoline-3-carboxylate] the AUC [1] was 232000 ng·h/mL, the Cmax [1] was 28600 ng/mL and the Tmax [1] was 1 h. The half-life [1] was 2.53 h and the IC50 (human MAT2A enzyme) was 2.89 nM.
Work on `COC(=O)c1c(N)c2ccc(Cl)cc2n(-c2ccccc2)c1=O` [Example 15, methyl 4-amino-7-chloro-2-oxo-1-phenyl-1,2-dihydroquinoline-3—carboxylate] yielded an AUC [1] of 44200 ng·h/mL, a Cmax [1] of 3080 ng/mL and a Tmax [1] of 6 h. The half-life [1] was 8.88 h.
For `COC(=O)c1c(N)c2ccc(Br)cc2n(-c2ccc(N)nc2)c1=O` [Example 180, methyl 4-amino-1-(6-aminopyridin-3-yl)-7-bromo-2-oxo-1,2-dihydroquinoline-3-carboxylate], the AUC [1] was 32800 ng·h/mL, the Cmax [1] was 5060 ng/mL and the Tmax [1] was 2.08 h. For the same molecule, the half-life [1] was 4.09 h and the IC50 (human MAT2A enzyme) was 0.76 nM.
`COC(=O)c1c(N)c2ccc(OC(F)(F)F)cc2n(-c2ccc(N)cc2)c1=O` [Example 379, methyl 4-amino-1-(4-aminophenyl)-2-oxo-7-(trifluoromethoxy)-1,2-dihydroquinoline-3-carboxylate] showed an AUC [1] of 468000 ng·h/mL, a Cmax [1] of 18600 ng/mL and a Tmax [1] of 4 h. For the same molecule, the half-life [1] was 16.5 h and the IC50 (human MAT2A enzyme) was 1.41 nM.
In the case of `COC(=O)c1c(N)c2ccc(C(F)(F)F)nc2n(-c2ccc(N)cc2Cl)c1=O` [Example 325, methyl 4-amino-1-(4-amino-2-chlorophenyl)-2-oxo-7-trifluoromethyl-1,2-dihydro-1,8-naphthyridine-3-carboxylate], the AUC [1] is reported as 452000 ng·h/mL, the Cmax [1] is reported as 52800 ng/mL and the Tmax [1] is reported as 1 h. For the same molecule, the half-life [1] was 6.81 h and the IC50 (human MAT2A enzyme) was 2.29 nM.
Molecule `COC(=O)c1c(N)c2ccc(Br)cc2n(-c2ccc(N)cc2C)c1=O` [Example 238, methyl 4-amino-1-(4-amino-2-methylphenyl)-7-bromo-2-oxo-1,2-dihydroquinoline-3-carboxylate] has an AUC [1] of 591000 ng·h/mL, a Cmax [1] of 37500 ng/mL and a Tmax [1] of 4 h. The half-life [1] was 9.25 h and the IC50 (human MAT2A enzyme) was 1.24 nM.
Molecule `COC(=O)c1c(N)c2ccc(Br)cc2n(-c2ccccc2)c1=O` [Example 22, methyl 4-amino-7-bromo-2-oxo-1-phenyl-1,2-dihydroquinoline-3—carboxylate] has an AUC [1] of 25300 ng·h/mL, a Cmax [1] of 1920 ng/mL and a Tmax [1] of 6 h. It also gave a half-life [1] of 6.82 h and an IC50 (human MAT2A enzyme) of 0.54 nM.
In the case of `COC(=O)c1c(N)c2ccc(C(F)(F)F)cc2n(-c2cccc3cnccc23)c1=O` [Example 88, methyl 4-amino-1-(isoquinolin-5-yl)-2-oxo-7-(trifluoromethyl)-1,2-dihydroquinoline-3-carboxylate], the AUC [1] is reported as 24800 ng·h/mL, the Cmax [1] is reported as 6690 ng/mL and the Tmax [1] is reported as 0.42 h. It also gave a half-life [1] of 3.88 h and an IC50 (human MAT2A enzyme) of 7.3 nM.
In the case of `COC(=O)c1c(N)c2ccc(I)cc2n(-c2cnc(Cl)cc2C)c1=O` [Example 225, methyl 4-amino-1-(6-chloro-4-methylpyridin-3-yl)-7-iodo-2-oxo-1,2-dihydroquinoline-3-carboxylate], the IC50 (human MAT2A enzyme) is reported as 3.11 nM.
In the case of `COC(=O)c1c(N)c2ccc(Br)nc2n(-c2ccc(Cl)nc2C)c1=O` [Example 248, methyl 4-amino-7-bromo-1-(6-chloro-2-methylpyridin-3-yl)-2-oxo-1,2-dihydro-1,8-naphthyridine-3-carboxylate], the IC50 (human MAT2A enzyme) is reported as 1.69 nM.
Molecule `COC(=O)c1c(N)c2ccc(Br)cc2n(-c2ccc(OC)nc2)c1=O` [Example 211, methyl 4-amino-7-bromo-1-(6-methoxypyridin-3-yl)-2-oxo-1,2-dihydroquinoline-3-carboxylate] has an IC50 (human MAT2A enzyme) of 1.84 nM.
Work on `COC(=O)c1c(N)c2ccc(C(F)(F)F)cc2n(-c2ccc(OC)cc2C)c1=O` [Example 80, methyl 4-amino-1-(4-methoxy-2-methylphenyl)-2-oxo-7-(trifluoromethyl)-1,2-dihydroquinoline-3-carboxylate] yielded an IC50 (human MAT2A enzyme) of 4.03 nM.
`COC(=O)c1c(N)c2ccc(C(F)(F)F)cc2n(-c2ccccc2Cl)c1=O` [Example 69, methyl 4-amino-1-(2-chlorophenyl)-2-oxo-7-(trifluoromethyl)-1,2-dihydro quinoline-3-carboxylate] showed an IC50 (human MAT2A enzyme) of 6.39 nM.
With `COC(=O)c1c(N)c2ccc(C(F)(F)F)nc2n(-c2ccc3ccncc3c2)c1=O` [Example 283, methyl 4-amino-1-(isoquinolin-7-yl)-2-oxo-7-(trifluoromethyl)-1,2-dihydro-1,8-naphthyridine-3-carboxylate] the IC50 (human MAT2A enzyme) was 0.7 nM.
`COC(=O)c1c(N)c2ccc(I)cc2n(-c2ccc(C)nc2C)c1=O` [Example 294, methyl 4-amino-1-(2,6-dimethylpyridin-3-yl)-2-oxo-7-iodo-1,2-dihydroquinoline-3-carboxylate] gave an IC50 (human MAT2A enzyme) of 1.08 nM.
In the case of `COC(=O)c1c(N)c2ccc(Br)cc2n(-c2ccc(Cl)cc2)c1=O` [Example 91, methyl 4-amino-7-bromo-1-(4-chlorophenyl)-2-oxo-1,2-dihydroquinoline-3-carboxylate], the IC50 (human MAT2A enzyme) is reported as 0.93 nM.
`C=Cc1ccc(-n2c(=O)c(C(=O)OC)c(N)c3ccc(C(F)(F)F)cc32)cc1` [Example 132, methyl 4-amino-2-oxo-7-(trifluoromethyl)-1-(4-vinylphenyl)-1,2-dihydroquinoline-3-carboxylate] gave an IC50 (human MAT2A enzyme) of 4.91 nM.
For `[2H]CC(O)c1ccc(-n2c(=O)c(C(=O)OC([2H])([2H])[2H])c(N)c3ccc(C(F)(F)F)nc32)cc1` (stereo not shown) [Example 371, methyl-d3 4-amino-1-(4-(1-hydroxyethyl-2-d)phenyl)-2-oxo-7-(trifluoromethyl)-1,2-dihydro-1,8-naphthyridine-3-carboxylate], the IC50 (human MAT2A enzyme) was 1.45 nM.
For `[2H]C([2H])([2H])OC(=O)c1c(N)c2ccc(Br)cc2n(-c2ccc(N)cc2)c1=O` [Example 189, methyl-d3 4-amino-1-(4-aminophenyl)-7-bromo-2-oxo-1,2-dihydroquinolin-3-carboxylate], the IC50 (human MAT2A enzyme) was 0.32 nM.
For `COC(=O)c1c(N)c2ccc(Br)cc2n(-c2ccc3nccnc3c2)c1=O` [Example 220, methyl 4-amino-7-bromo-2-oxo-1-(quinoxalin-6-yl)-1,2-dihydroquinoline-3-carboxylate], the IC50 (human MAT2A enzyme) was 2.07 nM.
`COC(=O)c1c(N)c2ccc(NCC(F)(F)F)nc2n(-c2ccc(C)nc2)c1=O` [Example 382, methyl 4-amino-1-(6-methylpyridin-3-yl)-2-oxo-7-((2,2,2-trifluoroethyl)amino)-1,2-dihydro-1,8-naphthyridine-3-carboxylate] gave an IC50 (human MAT2A enzyme) of 1.88 nM.
Work on `COC(=O)c1c(N)c2ccc(C)cc2n(-c2cccc3cnccc23)c1=O` [Example 205, methyl 4-amino-1-(isoquinolin-5-yl)-7-methyl-2-oxo-1,2-dihydroquinoline-3-carboxylate] yielded an IC50 (human MAT2A enzyme) of 4.47 nM.
